Usually IC50 stands for the concentration needed to halve the response being measured.

The results in this text go back to patent US20220288034A1, “METHOD OF REDUCING ABERRANT IMMUNE RESPONSE OR RISK OF PROGRESSION IN COVID-19” (CELLTAXIS, LLC, priority 2021, published 2022).

In this assay the target is T1, LTA4H (Homo sapiens, UniProt P09960).
T1 sequence (P09960 1-611): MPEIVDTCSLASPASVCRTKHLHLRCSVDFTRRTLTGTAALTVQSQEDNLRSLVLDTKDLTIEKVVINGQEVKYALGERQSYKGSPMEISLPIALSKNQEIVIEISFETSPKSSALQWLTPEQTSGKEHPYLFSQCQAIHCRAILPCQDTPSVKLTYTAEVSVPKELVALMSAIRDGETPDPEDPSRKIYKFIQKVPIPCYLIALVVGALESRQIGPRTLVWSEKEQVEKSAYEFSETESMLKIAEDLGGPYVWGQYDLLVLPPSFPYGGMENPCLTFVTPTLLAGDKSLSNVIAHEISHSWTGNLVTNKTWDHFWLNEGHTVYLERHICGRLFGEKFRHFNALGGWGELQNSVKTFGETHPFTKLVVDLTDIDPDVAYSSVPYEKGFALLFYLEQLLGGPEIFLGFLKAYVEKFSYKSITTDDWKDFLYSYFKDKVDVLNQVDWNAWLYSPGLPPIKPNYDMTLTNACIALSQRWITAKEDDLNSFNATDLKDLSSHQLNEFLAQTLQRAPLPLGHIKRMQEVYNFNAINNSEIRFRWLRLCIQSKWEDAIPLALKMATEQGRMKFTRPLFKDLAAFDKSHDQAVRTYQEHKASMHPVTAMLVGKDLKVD
The experiment in a line: In vitro inhibition of epoxide hydrolase enzymatic activity of LTA4H (LTB4 production). The assay is classed as biochemical.

`O=C(O)c1ccc(CN2C[C@@H]3C[C@H]2CN3Cc2ccc(Oc3ccc(-c4ncco4)cc3)cc2)cc1` [acebilustat, 4-{[(1 S,4S)-5-({4-[4-oxazol-2-yl-phenoxy]phenyl}methyl)-2,5-diazabicyclo[2.2.1]heptan-2-yl]methyl}benzoic acid]: the IC50 was 13.1 nM.
